Data published in patent publication US10501479B2, “Benzenesulfonyl-asymmetric ureas and medical uses thereof” (HELSINN HEALTHCARE SA, priority 2016, dated 2019).
“And” between values parts separate entries of the source, which are not always exact repeats. Equal entries are not always repeated. Structures can show the parent of a compound that is named as a salt.

Experiments:
[1] = molecular target: T1, GHSR-1a (HEK293/GHSR1a cell line) (Homo sapiens, UniProt Q92847); test: Ghrelin antagonist potency (IC50) with calcium FLIPR assay, ghrelin 10 nM; format: cell-based; details: ghrelin antagonist potency, read-out: IC50 (Activity)
T1 construct: expressed in transfected cells; host or cells: HEK293/GHSR1a cell line
T1 sequence (Q92847 whole entry): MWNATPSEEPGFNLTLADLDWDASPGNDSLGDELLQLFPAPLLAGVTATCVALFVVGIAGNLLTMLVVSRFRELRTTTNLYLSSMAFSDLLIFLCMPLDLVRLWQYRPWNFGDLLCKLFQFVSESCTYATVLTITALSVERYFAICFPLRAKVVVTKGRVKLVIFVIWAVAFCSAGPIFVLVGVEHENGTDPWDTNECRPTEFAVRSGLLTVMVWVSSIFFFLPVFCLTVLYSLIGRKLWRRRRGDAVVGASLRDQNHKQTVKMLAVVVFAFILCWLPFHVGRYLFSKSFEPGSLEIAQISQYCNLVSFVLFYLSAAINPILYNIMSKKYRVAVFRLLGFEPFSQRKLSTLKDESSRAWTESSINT
Procedure: Evaluation of Ghrelin Agonist (EC50) and Antagonist Potency (IC50) with Calcium FLIPR Assay:
The intracellular calcium assay was carried out in a 384-well format FLIPR™ (Molecular Device) HEK293/GHSR1a cell line. Cells were seeded 24 hr prior to the experiments at an optimal density per well. Preincubation with selected calcium dye lasted for 30-60 min at room temperature or 37° C. Test compounds, dissolved in DMSO, were added at the appropriate time and incubated for 15 min followed by the addition of ghrelin with FlexStation or FLIPR. Relative fluorescence was monitored by the FLIPR™ Molecular Device. EC50 and IC50 values were estimated from dose-response data using GraphPad Prism software. To check for GHSR-1a agonism, the compound was added at t=20 sec. and the calcium response was followed for 2 minutes. To check for GHSR-1a antagonism, the compound and Ghrelin (10 nM) were added to the cells at t=20 sec. and the calcium response was measured for 2 minutes. The potency of the antagonist was calculated by its ability to reduce the ghrelin response. Dose-response curves were made for relevant antagonists.

[2] = molecular target: T2, recombinant human ghrelin receptor (HEK293/GRLN) (Homo sapiens, UniProt Q92847); test: Ghrelin inverse agonist potency (EC50) with IP-1 (IP-One HTRF) assay; format: cell-based; details: inverse agonist potency, IP-1 assay; read-out: EC50 (Activity)
T2 construct: expressed in transfected cells
T2 sequence (Q92847 whole entry): as above
Procedure: Evaluation of Ghrelin Inverse Agonist Potency (EC50) with IP-1 Assay:
HEK293 cells stably expressing recombinant human ghrelin receptor (HEK293/GRLN) were used in the IP-One HTRF assay. One day before the test, cells were seeded at a density of 1.5×10^4/well in a Matrigel® coated 384-well plate with 30 μL of complete Dulbecco's Modified Eagle's Medium and incubated at 37° C. in 5% CO2 for 18-22 hours. On the test day, the medium was removed by centrifugation at 600 rpm for 30 seconds, and 20 μL of stimulation buffer containing 1x tested compound was added with Bravo (Agilent technologies). The plate was then incubated at 37° C. 5% CO2 for 1 hour. After the incubation, 5 μL of IP1-d2 and 5 μL of Tb-Cryp were added to all wells using multidrop Combi(Thermo). After additional incubation at room temperature for 1 hour, the plates were read on Envision with 620 and 665 (Perkin Elmer).

| Compound | IC50 [1] [nM] | EC50 [2] |
| --- | --- | --- |
| CN(Cc1ccccc1)C(=O)Nc1ccc(S(=O)(=O)Cc2ccc3c(c2)CNC3)cc1 [H1204, 1-benzyl-3-(4-((isoindolin-5-ylmethyl)sulfonyl)phenyl)-1-methylurea] | 692 | 624 nM |
| COc1ccc(CNC(=O)Nc2ccc(S(=O)(=O)Cc3ccc4c(c3)CNC4)cc2)nc1 [H1212, 1-(4-((isoindolin-5-ylmethyl)sulfonyl)phenyl)-3-((5-methoxypyridin-2-yl)methyl)urea] | 3100 | 1780 nM |
| CCNC(=O)Nc1ccc(S(=O)(=O)Cc2ccc3c(c2)CNC3)cc1 [H1180, 1-ethyl-3-(4-((isoindolin-5-ylmethyl)sulfonyl)phenyl)urea] | 14700 | 315 nM |
| C[C@H](NC(=O)Nc1ccc(S(=O)(=O)Nc2ccc3c(c2)CCNC3)cc1)c1ccc(-c2cnccn2)c(Cl)c1Cl [H1006, (S)-4-(3-(1-(2,3-dichloro-4-(pyrazin-2-yl)phenyl)ethyl)ureido)-N-(1,2,3,4-tetrahydroisoquinolin-6-yl)benzenesulfonamide] | 72 | 36.9 nM |
| C[C@H](NC(=O)Nc1ccc(S(=O)(=O)Cc2ccc3c(c2)CCNC3)cc1)c1ccccc1 [H1028, (S)-1-(1-phenylethyl)-3-(4-(((1,2,3,4-tetrahydroisoquinolin-6-yl)methyl)sulfonyl)phenyl)urea] | 414 | 234 nM |
| CC(c1ccc2c(c1)CCNC2)S(=O)(=O)c1ccc(NC(=O)N[C@@H](C)c2cccc(Cl)c2Cl)cc1 (stereo partly drawn) [H1102, 1-((S)-1-(2,3-dichlorophenyl)ethyl)-3-(4-((1-(1,2,3,4-tetrahydroisoquinolin-6-yl)ethyl)sulfonyl)phenyl)urea hydrochloride] | 73.9 | 58.3 nM and 21.6 nM |
| C[C@H](NC(=O)Nc1ccc(S(=O)(=O)Nc2ccc3c(c2)CNCC3)cc1)c1cccc(Cl)c1Cl [H1049, (S)-4-(3-(1-(2,3-dichlorophenyl)ethyl)ureido)-N-(1,2,3,4-tetrahydroisoquinolin-7-yl)benzenesulfonamide] | 16.3 | 29.6 nM |
| COc1ccc([C@H](C)NC(=O)Nc2ccc(S(=O)(=O)Nc3ccc4c(c3)CCN(C(C)=O)C4)cc2)c(Cl)c1Cl [H1034, (S)-N-(2-acetyl-1,2,3,4-tetrahydroisoquinolin-6-yl)-4-(3-(1-(2,3-dichloro-4-methoxyphenyl)ethyl)ureido) benzenesulfonamide] | 1260 | 1610 nM |
| O=C(NCc1cccc(Cl)c1Cl)Nc1ccc(S(=O)(=O)Cc2ccc3c(c2)CCNC3)cc1 [H1040, 1-(2,3-dichlorobenzyl)-3-(4-(((1,2,3,4-tetrahydroisoquinolin-6-yl)methyl)sulfonyl)phenyl)urea] | 31.8 | 164 nM |
| COCc1ccc(CS(=O)(=O)c2ccc(NC(=O)N[C@@H](C)c3cccc(Cl)c3Cl)cc2)cc1 [H1093, (S)-1-(1-(2,3-dichlorophenyl)ethyl)-3-(4-((4-(methoxymethyl)benzyl)sulfonyl)phenyl)urea] | 2380 | 327 nM |
| CC(C)NC(=O)Nc1ccc(S(=O)(=O)Cc2ccc3c(c2)CNC3)cc1 [H1178, 1-(4-((isoindolin-5-ylmethyl)sulfonyl)phenyl)-3-isopropylurea] | 4890 | 1020 nM |
| C[C@H](NC(=O)Nc1ccc(S(=O)(=O)Nc2ccc(C(C)(C)N)cc2)cc1)c1cccc(Cl)c1Cl [H1074, (S)-N-(4-(2-aminopropan-2-yl)phenyl)-4-(3-(1-(2,3-dichlorophenyl)ethyl)ureido) benzenesulfonamide] | 3250 | 657 nM |
| C[C@H](NC(=O)Nc1ccc(S(=O)(=O)Cc2ccc3c(c2)COCC3)cc1)c1cccc(Cl)c1Cl [H1097, (S)-1-(1-(2,3-dichlorophenyl)ethyl)-3-(4-((isochroman-7-ylmethyl)sulfonyl)phenyl)urea] | 1970 | 363 nM |
| C[C@H](NC(=O)Nc1ccc(S(=O)(=O)Nc2ccc(CC(C)(C)N)cc2)cc1)c1ccc(C#CC2CC2)c(Cl)c1Cl [H0907, (S)-N-(4-(2-amino-2-methylpropyl)phenyl)-4-(3-(1-(2,3-dichloro-4-(cyclopropylethynyl)phenyl)ethyl)ureido)benzenesulfonamide] | 23.5 | 1610 nM |
| CC(c1ccccc1)N(C)C(=O)Nc1ccc(S(=O)(=O)Cc2ccc3c(c2)CNC3)cc1 (stereo not drawn) [H1206, 3-(4-((isoindolin-5-ylmethyl)sulfonyl)phenyl)-1-methyl-1-(1-phenylethyl)urea] | 262 | 252 nM |
| CC(NC(=O)Nc1ccc(S(=O)(=O)Nc2ccc(CO)cc2)cc1)c1cccc2ccccc12 (stereo not drawn) [H1133, N-(4-(hydroxymethyl)phenyl)-4-(3-(1-(naphthalen-1-yl)ethyl)ureido) benzenesulfonamide] | 419 | 170 nM |
| CC(NC(=O)Nc1ccc(S(=O)(=O)Nc2ccc(CO)cc2)cc1)c1ccccc1 (stereo not drawn) [H1141, N-(4-(hydroxymethyl)phenyl)-4-(3-(1-phenylethyl)ureido) benzenesulfonamide] | 2610 | 562 nM |
| C[C@H](NC(=O)Nc1ccc(S(=O)(=O)Cc2ccc3c(c2)COC3)cc1)c1cccc(Cl)c1Cl [H1098, (S)-1-(1-(2,3-dichlorophenyl)ethyl)-3-(4-(((1,3-dihydroisobenzofuran-5-yl)methyl)sulfonyl)phenyl)urea] | 12100 | 649 nM |
| O=C(NCc1cccc(Cl)c1Cl)Nc1ccc(S(=O)(=O)Cc2ccc3c(c2)CNCC3)cc1 [H1044, 1-(2,3-dichlorobenzyl)-3-(4-(((1,2,3,4-tetrahydroisoquinolin-7-yl)methyl)sulfonyl)phenyl)urea] | 53.1 | 143 nM |
| O=C(NCc1ccsc1)Nc1ccc(S(=O)(=O)Cc2ccc3c(c2)CNC3)cc1 [H1217, 1-(4-((isoindolin-5-ylmethyl)sulfonyl)phenyl)-3-(thiophen-3-ylmethyl)urea] | 1450 | 1150 nM |
| C[C@H](NC(=O)Nc1ccc(S(=O)(=O)Cc2ccc(CN)cc2)cc1)c1cccc(Cl)c1Cl [H1051, (S)-1-(4-((4-(aminomethyl)benzyl)sulfonyl)phenyl)-3-(1-(2,3-dichlorophenyl)ethyl)urea] | 53.7 | 116 nM |
| CC(NC(=O)Nc1ccc(S(=O)(=O)Cc2ccc(CO)cc2)cc1)c1cccc2ccccc12 (stereo not drawn) [H1132, 1-(4-((4-(hydroxymethyl)benzyl)sulfonyl)phenyl)-3-(1-(naphthalen-1-yl)ethyl)urea] | 574 | 219 nM |
| C[C@H](NC(=O)Nc1ccc(S(=O)(=O)Cc2cnc(N)nc2)cc1)c1cccc(Cl)c1Cl [H1130, (S)-1-(4-(((2-aminopyrimidin-5-yl)methyl)sulfonyl)phenyl)-3-(1-(2,3-dichlorophenyl)ethyl)urea] | 3380 | 1280 nM |
| COc1ccc([C@H](C)NC(=O)Nc2ccc(S(=O)(=O)Nc3ccc(CCN)cc3)cc2)c(Cl)c1Cl [H0951, (S)-N-(4-(2-aminoethyl)phenyl)-4-(3-(1-(2,3-dichloro-4-methoxyphenyl)ethyl)ureido) benzenesulfonamide] | 83.8 | 32.7 nM |
| COc1ccc(CNC(=O)Nc2ccc(S(=O)(=O)Cc3ccc4c(c3)CNC4)cc2)cc1 [H1203, 1-(4-((isoindolin-5-ylmethyl)sulfonyl)phenyl)-3-(4-methoxybenzyl)urea] | 447 | 161 nM |
| O=C(NCc1ccccc1)Nc1ccc(S(=O)(=O)Cc2ccc3c(c2)CCNC3)cc1 [H1029, 1-benzyl-3-(4-(((1,2,3,4-tetrahydroisoquinolin-6-yl)methyl)sulfonyl)phenyl)urea] | 332 | 188 nM |
| CC(C)(C)NC(=O)Nc1ccc(S(=O)(=O)Cc2ccc3c(c2)CNC3)cc1 [H1205, 1-(tert-butyl)-3-(4-((isoindolin-5-ylmethyl)sulfonyl)phenyl)urea] | 9870 | 5340 nM |
| CCOC(=O)N1CCc2cc(CS(=O)(=O)c3ccc(NC(=O)N[C@@H](C)c4cccc(Cl)c4Cl)cc3)ccc2C1 [H1055, ethyl (S)-6-(((4-(3-(1-(2,3-dichlorophenyl)ethyl)ureido)phenyl)sulfonyl)methyl)-3,4-dihydroisoquinoline-2(1H)-carboxylate] | 4470 | 516 nM |
| C[C@H](NC(=O)Nc1ccc(S(=O)(=O)Cc2cccc(CO)c2)cc1)c1cccc(Cl)c1Cl [H1088, (S)-1-(1-(2,3-dichlorophenyl)ethyl)-3-(4-((3-(hydroxymethyl)benzyl)sulfonyl)phenyl)urea] | 7970 | 367 nM |
| Cc1ccc(CS(=O)(=O)c2ccc(NC(=O)N[C@@H](C)c3cccc(Cl)c3Cl)cc2)cc1 [H0964, (S)-1-(1-(2,3-dichlorophenyl)ethyl)-3-(4-((4-methylbenzyl)sulfonyl)phenyl)urea] | 4170 | 2480 nM |
